Assay type in all cases: cell-based
In data set [1] the test system is HIV-1 long terminal repeat (LTR)-driven luciferase reporter gene in FlipIn.FM HEK293 cells. Briefly: cells. On the procedure:
FIG. 44. […] The FlipIn.FM model of HIV-1 latency was treated with JQ1 (+) and DP#14 (Compound 7) alone at 10 μM and in combination, and the HIV-1 gene expression measured 48 hrs post treatment. Error bars represent standard deviation of n=3 experiments. OPTI represents media alone, without DP#14.
FIG. 46. […] The FlipIn.FM model of HIV-1 latency was treated with PFI-1 and DP#14 alone at 10 μM and in combination, and the HIV-1 gene expression measured 48 hrs post treatment. Error bars represent standard deviation of n=3 experiments. OPTI represents media alone, without DP#14.
Explicitly, HEK293 derived FlipIn-FM and FlipIn-RV dual reporter cells each include a single stable HIV-1 long terminal repeat (LTR)-driven luciferase reporter genes, with a second complimentary non-HIV (off-target) luciferase reporter. These cell lines model post integration latency and read-through transcription by expressing a low level of HIV-1 Tat protein via a native Internal Ribosome Entry Site (IRES) found within Tat, from a chimeric cellular-tat gene cassette. FlipIn-FM and FlipIn-RV clones were chosen for low basal levels of LTR activity and high responsiveness to Tat as well as many Latency Reversing Agents (LRAs).
The dual reporter cell lines contain three stably integrated constructs that together allow for detection of novel LRAs, capable of potent and specific HIV reactivation. The FlipIn.FM line contains a proviral LTR-driven nef/CBR reporter fusion gene, allowing for detection of viral gene expression. A second CMV-driven CBG luciferase reporter allows for detection of off target drug effects, including non-specific activation and drug toxicity. The third construct contains the first coding exon of HIV-1 tat, within human Growth Hormone (hGH) as a chimeric gene, expressing HIV-1 Tat protein from an IRES mechanism that underlies the tat exon. This construct models read-through transcription and the low level of Tat protein expression that occurs during post integration latency. The counter screening reverse cell line, FlipIn.RV, contains the same three components with the Click Beetle Luciferase genes in the opposite orientation (LTR-CBG and CMV-CBR) for counter screening.
Compounds were evaluated in an 11-point titration using normal CMV-CBG/LTR-CBR reporter cell line and an 11 point reverse CMV-CBR/LTR-CBG reporter cell line.
The FlipIn cell lines were therefore designed with a dual purpose, to detect novel compounds that reactivate HIV-1 and to also screen out compounds that behaved in a largely non-specific manner. To achieve the latter, the cell lines contain an “off target” reporter gene construct, driven by the unrelated CMV-IE promoter, that allows for the detection of drug mediated off target effects including global gene activation as well as possible toxicity.
The HIV-LTR driven latent reporter gene identifies the HIV-specific activation, and the term “global reporter” is interchangeable with “off target reporter” and refers to the unrelated CMV-IE promoter driven reporter gene, which is used as a surrogate for global gene activation. […] The highest concentration tested here was 40 μM.

Data set [2] concerns HIV-1 gene expression in J.Lat10.6 latently infected T-cell line. The data set can be described thus: cells. On the procedure:
The J.Lat10.6 latently infected T-cell line was treated with 4 compounds of the present invention, DP#6 (Compound 41), DP#14 (Compound 7), DP#18 (Compound 65), and DP#19 (Compound 73) and reactivated for 48 hrs. HIV-1 reactivation was measured by flowcytometry for GFP expression. Error bars represent standard deviation of n=3 experiments.
FIG. 45. […] The J.Lat10.6 model of HIV-1 latency was treated with JQ1 (+) and DP#14 (Compound 7) alone at 10 μM and in combination, and the HIV-1 gene expression measured 48 hrs post treatment. Error bars represent standard deviation of n=3 experiments. OPTI represents media alone, without DP#14.
FIG. 47. […] The J.Lat10.6 model of HIV-1 latency was treated with PFI-1 and DP#14 alone at 10 μM and in combination, and the HIV-1 gene expression measured 48 hrs post treatment. Error bars represent standard deviation of n=3 experiments. OPTI represents media alone, without DP#14.
Compounds were also evaluated in a dose ranging titration with HIV latently infected cell lines (J.Lat 6.3 and 10.6). The specificity of the selected compounds in these cell line models, were measured by inserting a CMV-DS.Red reporter into these cells to co-ordinately measure HIV specific LTR-Green fluorescent protein and non-specific DS.Red expression during FACS analysis.
The J.Lat model of HIV-1 latency is a well-established model used widely and is described in detail in the following paper:
HIV reproducibly establishes a latent infection after acute infection of T cells in vitro, Eric Verdin et al, The EMBO Journal Vol. 22 No. 8 pp 1868-1877, 2003

The test system of data set [3] is J.Lat10.6 T-cell line. The data set can be described thus: Dose dependent toxicity in the J.Lat model. As to conditions: dosed as high as 40 μM.

Consider one compound from US20190330167A1, “ACTIVATORS OF HIV LATENCY” (priority 2016, published 2019).

Consider `O=C(CCCOc1ccccc1)Nc1ncc(Br)s1` [Compound 7], for which the “fold change in HIV-1 gene expression over the unstimulated baseline” value in data set [1] (FlipIn.FM model, alone at 10 μM and in combination, 48 hrs post treatment) worked out at 4.2 fold. Besides, in data set [1] (Human immunodeficiency virus 1, HEK293, HIV-LTR driven latent reporter, 11-point, 2-fold dilution series, highest concentration 40 μM, read-out: Latent reporter Av EC50), the EC50 (as a rule, the concentration needed to bring the measured effect to its halfway point) was 1.64 µM. Besides, the IC50 (as a rule, the concentration at which inhibition is half-maximal) in data set [2] (Human immunodeficiency virus 1, J-Lat 10.6, 48 h, read-out: IC50 for reactivation of HIV-1 gene expression) is approximately 4.5 µM. In data set [2] (J.Lat10.6 model, alone at 10 μM and in combination, 48 hrs post treatment), the “percent of the cells treated with reactivated HIV-1 gene expression” value was found to be 2.4%. For the same compound, in data set [3], the dose dependent toxicity result was “no such toxicity”.
